Reference: patent US6685840B2, “Method for determining the dissolution rate of a solid water treatment product” (Ondeo Nalco Company, priority 2002, dated 2004)

Test: Dissolution (release) rate of the ingredients of a solid water treatment tablet in standard cooling water
Type: physicochemical
Design: key: *: value was below detection limits for this moiety
Excerpt: After the solid water treatment product has been formed it must be tested to determine its dissolution rate in water. Test water that is formulated to closely match the type of water found in the industrial water system of interest is provided. For example, “standard” test water for cooling water in a cooling tower typically has the following features: 60 ppm Ca^2+, 18 ppm Mg^2+, 134 ppm HCO3^−, 53 ppm Cl^− and 72 ppm SO4^2−. A typical scale formation test for a model or simulation boiler typically has these concentrations of scaling contaminants in the boiler water; 10 ppm Calcium as CaCO3, 5 ppm Magnesium as CaCO3, 5 ppm silica as SiO2. Alkalinity such as caustic (NaOH) is added in sufficient quantity to maintain a pH of typically between 10.0 and 11.0 in the boiler water.
In order to determine the dissolution rate of the solid water treatment product the solid water treatment product is placed in the test water and allowed to dissolve. A fluorometer is provided and the fluorescent signal of the Fluorescent Tracer present in the solid water treatment product is measured using the fluorometer. The fluorescent signal is measured at regular intervals.
A tablet of solid cooling water treatment product of Formulation 1, {27.6% benzotriazole, 70.4% 1-hydroxyethylidene-1,1-diphosphonic acid and 2% 1,3,6,8-pyrenetetrasulfonic acid, sodium salt} is made. The tablet weighs 0.9081 grams. The tablet is placed in standard cooling water {60 ppm Ca^2+, 18 ppm Mg^2+, 134 ppm […] , 53 ppm Cl^31 and 72 ppm SO4^2−} and the dissolution rate of each ingredient in the table is measured. The dissolution rate of each ingredient present is measured using analytical techniques suitable for analyzing for each ingredient. The dissolution rate of the benzotriazole (abbreviated “BZT”) is measured using fluorometric analytical techniques, known in the art of analyzing triazoles. The dissolution rate of 1-hydroxyethylidene-1,1-diphosphonic acid (abbreviated “HEDP”) is measured using standard “colorimetric determination” analytical techniques, known in the art of analyzing for diphosphonic acids. The dissolution rate of the 1,3,6,8-pyrenetetrasulfonic acid, sodium salt (abbreviated “PTSA”) is measured using fluorometric analytical techniques.
The results of this test are shown in Table 1 Release rates for each ingredient are given in milligrams (‘mg”) per minute (“min.”).
The same tablet was made as was made in Example 1, except that this time, the tablet was coated with a polyethylene oxide material with a molecular weight of approximately 15,000 such that the final weight of finished tablet was 1.411 grams. The dissolution rate of the three ingredients in this tablet were determined, using the same analytical techniques as in Example 1.

[1] = Example 1 uncoated tablet of Formulation 1 (0.9081 g), standard cooling water, time 0 minutes
[2] = Example 1 uncoated tablet of Formulation 1, standard cooling water, time 1 minutes
[3] = Example 1 uncoated tablet of Formulation 1, standard cooling water, time 5 minutes
[4] = Example 1 uncoated tablet of Formulation 1, standard cooling water, time 10 minutes
[5] = Example 1 uncoated tablet of Formulation 1, standard cooling water, time 15 minutes
[6] = Example 1 uncoated tablet of Formulation 1, standard cooling water, time 30 minutes
[7] = Example 1 uncoated tablet of Formulation 1, standard cooling water, time 60 minutes
[8] = Example 1 uncoated tablet of Formulation 1, standard cooling water, time 130 minutes
[9] = Example 2 tablet coated with polyethylene oxide (1.411 g), time 0 minutes
[10] = Example 2 tablet coated with polyethylene oxide, time 5 minutes
[11] = Example 2 tablet coated with polyethylene oxide, time 15 minutes
[12] = Example 2 tablet coated with polyethylene oxide, time 30 minutes
[13] = Example 2 tablet coated with polyethylene oxide, time 40 minutes
[14] = Example 2 tablet coated with polyethylene oxide, time 50 minutes
[15] = Example 2 tablet coated with polyethylene oxide, time 61 minutes, in mg/min
[16] = Example 2 tablet coated with polyethylene oxide, time 75 minutes, in mg/min
[17] = Example 2 tablet coated with polyethylene oxide, time 110 minutes, in mg/min
[18] = Example 2 tablet coated with polyethylene oxide, time 180 minutes, in mg/min

| Structure (SMILES) | Release Rate [1] | Release Rate [2] | Release Rate [3] [mg per min.] | Release Rate [4] [mg per min.] | Release Rate [5] [mg per min.] | Release Rate [6] [mg per min.] | Release Rate [7] | Release Rate [8] | Release Rate [9] | Release Rate [10] | Release Rate [11] | Release Rate [12] | Release Rate [13] [mg/min] | Release Rate [14] [mg/min] | Release Rate [15] | Release Rate [16] | Release Rate [17] | Release Rate [18] | further results |
| --- | --- | --- | --- | --- | --- | --- | --- | --- | --- | --- | --- | --- | --- | --- | --- | --- | --- | --- | --- |
| c1ccc2[nH]nnc2c1 [BZT, benzotriazole] | * | * | 8.75 | 13.8 | 11.4 | 2.167 | 0.5 mg per min. | 0.493 mg per min. | * | * | * | * | 0.2 | 2.6 | 5.545 | 4.393 | 0.829 | 0.236 | – |
| CC(O)(P(=O)(O)O)P(=O)(O)O [HEDP, 1-hydroxyethylidene-1,1-diphosphonic acid] | * | * | 10.5 | 20 | 11.4 | 0.933 | 1.03 mg per min. | 0.0143 mg per min. | * | * | * | * | 1.2 | 2.55 | 8.091 | 4.893 | – | 0.329 | Release Rate (Example 2 tablet coated with polyethylene oxide, time 110 minutes): 1.7 mg/min |
| O=S(=O)([O-])c1cc(S(=O)(=O)[O-])c2ccc3c(S(=O)(=O)[O-])cc(S(=O)(=O)[O-])c4ccc1c2c43.[Na+].[Na+].[Na+].[Na+] [PTSA, 1,3,6,8-pyrenetetrasulfonic acid, sodium salt] | * | * | 0.5925 | 0.98 | 0.5 | 0.143 | * | * | * | * | * | * | – | – | – | 0.190 | 0.0571 | 0.00493 | Release Rate (Example 2 tablet coated with polyethylene oxide, time 40 minutes, in mg/min): 0.052; Release Rate (Example 2 tablet coated with polyethylene oxide, time 50 minutes, in mg/min): 0.121; Release Rate (Example 2 tablet coated with polyethylene oxide, time 61 minutes): 0.33 mg/min |
